{"source": "paper PMC4699737", "about": "“TrpA1 Regulates Defecation of Food-Borne Pathogens under the Control of the Duox Pathway” (PLoS Genetics, 2016)", "experiment_in_all_cases": "two-electrode voltage clamp, Xenopus oocytes, Hill fit", "type_in_all_cases": "cell-based", "conditions_in_all_cases": "agonist (activation); -60 mV, pH 7.6; currents normalized to 100 ppm NaOCl, steady state", "key": {"[1]": {"biological_target": "T1, TRPA1(A)10b (Drosophila melanogaster, UniProt H0USS9)", "T1 construct": "full-length splice isoform, TrpA1 cRNA injected in Xenopus laevis oocytes", "T1 sequence (H0USS9 1-1231)": "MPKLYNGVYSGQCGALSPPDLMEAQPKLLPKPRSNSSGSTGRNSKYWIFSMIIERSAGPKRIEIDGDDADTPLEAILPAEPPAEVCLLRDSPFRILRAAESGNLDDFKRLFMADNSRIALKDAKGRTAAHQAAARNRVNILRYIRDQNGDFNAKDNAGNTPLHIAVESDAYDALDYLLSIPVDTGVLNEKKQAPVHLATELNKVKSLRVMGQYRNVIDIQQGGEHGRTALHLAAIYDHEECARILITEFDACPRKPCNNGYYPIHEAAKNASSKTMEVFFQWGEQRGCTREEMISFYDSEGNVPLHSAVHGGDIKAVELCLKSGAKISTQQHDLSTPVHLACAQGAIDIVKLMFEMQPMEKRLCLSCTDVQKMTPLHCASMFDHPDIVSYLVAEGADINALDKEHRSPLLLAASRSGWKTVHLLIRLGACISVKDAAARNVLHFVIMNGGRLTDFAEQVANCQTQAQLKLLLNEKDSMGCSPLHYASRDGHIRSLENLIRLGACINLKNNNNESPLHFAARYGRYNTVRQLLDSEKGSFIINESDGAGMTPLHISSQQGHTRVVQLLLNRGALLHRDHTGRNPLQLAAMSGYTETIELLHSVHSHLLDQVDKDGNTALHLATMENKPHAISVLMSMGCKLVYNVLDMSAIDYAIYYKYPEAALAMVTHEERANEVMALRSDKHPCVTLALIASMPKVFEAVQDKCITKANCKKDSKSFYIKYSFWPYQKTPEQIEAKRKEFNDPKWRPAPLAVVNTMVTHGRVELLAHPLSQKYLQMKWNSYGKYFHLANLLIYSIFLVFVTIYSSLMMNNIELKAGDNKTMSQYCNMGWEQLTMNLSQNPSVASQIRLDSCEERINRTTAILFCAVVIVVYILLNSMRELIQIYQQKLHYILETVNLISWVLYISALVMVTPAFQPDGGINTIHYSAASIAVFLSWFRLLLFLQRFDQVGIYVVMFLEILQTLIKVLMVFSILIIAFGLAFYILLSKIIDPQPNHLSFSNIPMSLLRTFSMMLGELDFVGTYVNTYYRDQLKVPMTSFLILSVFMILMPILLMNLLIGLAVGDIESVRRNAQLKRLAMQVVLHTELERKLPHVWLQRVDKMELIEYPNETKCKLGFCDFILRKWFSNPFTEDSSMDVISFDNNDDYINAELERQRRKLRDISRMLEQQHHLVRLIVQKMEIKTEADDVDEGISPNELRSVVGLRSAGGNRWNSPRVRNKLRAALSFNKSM", "text": "two-electrode voltage clamp, Xenopus oocytes, Hill fit on TRPA1(A)10b | The data were fitted to Hill equation to determine EC50s"}, "[2]": {"biological_target": "T2, hsTRPA1 (Homo sapiens, UniProt O75762)", "T2 construct": "gene TRPA1; full-length, cRNA injected in Xenopus laevis oocytes", "T2 sequence (O75762 whole entry)": "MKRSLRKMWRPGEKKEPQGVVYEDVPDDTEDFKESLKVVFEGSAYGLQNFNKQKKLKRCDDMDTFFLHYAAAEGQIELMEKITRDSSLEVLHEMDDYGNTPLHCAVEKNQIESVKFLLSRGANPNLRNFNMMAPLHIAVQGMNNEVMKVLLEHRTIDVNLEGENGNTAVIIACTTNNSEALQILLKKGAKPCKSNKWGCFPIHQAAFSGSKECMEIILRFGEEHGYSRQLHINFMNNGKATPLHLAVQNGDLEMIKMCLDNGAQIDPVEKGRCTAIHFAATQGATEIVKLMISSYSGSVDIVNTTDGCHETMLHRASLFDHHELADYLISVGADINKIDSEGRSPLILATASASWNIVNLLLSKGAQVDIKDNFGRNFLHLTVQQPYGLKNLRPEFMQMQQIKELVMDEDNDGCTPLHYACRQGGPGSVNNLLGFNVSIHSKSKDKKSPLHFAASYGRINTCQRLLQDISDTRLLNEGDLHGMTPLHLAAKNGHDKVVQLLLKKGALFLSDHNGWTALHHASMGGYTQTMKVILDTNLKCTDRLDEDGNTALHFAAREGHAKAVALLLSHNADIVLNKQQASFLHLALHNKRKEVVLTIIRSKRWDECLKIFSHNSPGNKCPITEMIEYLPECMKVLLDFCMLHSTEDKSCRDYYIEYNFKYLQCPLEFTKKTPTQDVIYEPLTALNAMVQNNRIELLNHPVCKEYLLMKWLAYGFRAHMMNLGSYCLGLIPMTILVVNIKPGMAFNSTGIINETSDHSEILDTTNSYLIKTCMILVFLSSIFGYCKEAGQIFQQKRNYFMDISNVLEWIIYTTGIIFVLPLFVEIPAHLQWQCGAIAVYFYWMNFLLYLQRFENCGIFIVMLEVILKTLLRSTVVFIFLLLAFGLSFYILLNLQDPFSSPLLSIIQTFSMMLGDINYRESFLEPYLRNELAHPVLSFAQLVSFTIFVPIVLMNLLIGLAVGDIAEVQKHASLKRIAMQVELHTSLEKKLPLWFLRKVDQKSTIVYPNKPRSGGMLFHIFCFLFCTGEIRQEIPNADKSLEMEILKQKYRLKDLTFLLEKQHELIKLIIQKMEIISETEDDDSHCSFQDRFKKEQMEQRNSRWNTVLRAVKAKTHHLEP"}, "[3]": {"biological_target": "T3, TRPA1(B)10a (Drosophila melanogaster, UniProt Q7Z020)", "T3 construct": "full-length splice isoform, TrpA1 cRNA injected in Xenopus laevis oocytes", "T3 sequence (Q7Z020 1-1197)": "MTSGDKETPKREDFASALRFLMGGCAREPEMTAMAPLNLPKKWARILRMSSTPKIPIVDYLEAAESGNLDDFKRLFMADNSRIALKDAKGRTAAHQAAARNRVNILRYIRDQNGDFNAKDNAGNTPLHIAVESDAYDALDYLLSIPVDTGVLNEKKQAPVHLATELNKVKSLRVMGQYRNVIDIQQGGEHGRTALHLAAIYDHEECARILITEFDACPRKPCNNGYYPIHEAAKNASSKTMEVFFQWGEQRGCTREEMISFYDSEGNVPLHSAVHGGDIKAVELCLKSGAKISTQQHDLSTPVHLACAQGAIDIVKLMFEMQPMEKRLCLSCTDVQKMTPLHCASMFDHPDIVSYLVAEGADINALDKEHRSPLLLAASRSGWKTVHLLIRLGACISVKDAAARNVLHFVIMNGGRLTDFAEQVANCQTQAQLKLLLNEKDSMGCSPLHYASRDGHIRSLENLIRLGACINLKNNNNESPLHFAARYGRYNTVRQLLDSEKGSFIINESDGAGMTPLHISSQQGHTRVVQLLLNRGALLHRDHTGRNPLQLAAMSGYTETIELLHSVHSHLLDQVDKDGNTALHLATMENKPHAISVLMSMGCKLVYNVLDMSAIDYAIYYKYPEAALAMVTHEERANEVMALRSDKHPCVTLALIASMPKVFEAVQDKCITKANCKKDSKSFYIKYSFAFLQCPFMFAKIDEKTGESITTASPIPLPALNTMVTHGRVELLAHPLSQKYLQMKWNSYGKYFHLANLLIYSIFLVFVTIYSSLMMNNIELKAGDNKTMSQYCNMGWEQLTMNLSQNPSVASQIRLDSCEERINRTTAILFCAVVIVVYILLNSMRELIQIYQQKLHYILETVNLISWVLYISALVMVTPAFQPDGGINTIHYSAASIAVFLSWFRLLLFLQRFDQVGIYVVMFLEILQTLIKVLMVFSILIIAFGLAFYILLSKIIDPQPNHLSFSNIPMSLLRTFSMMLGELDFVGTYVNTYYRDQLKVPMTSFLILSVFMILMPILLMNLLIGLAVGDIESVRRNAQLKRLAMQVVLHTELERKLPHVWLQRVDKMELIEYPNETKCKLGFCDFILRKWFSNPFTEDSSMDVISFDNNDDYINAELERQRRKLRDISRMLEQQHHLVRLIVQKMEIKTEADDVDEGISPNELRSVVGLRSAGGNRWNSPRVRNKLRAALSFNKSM"}, "[4]": {"biological_target": "T4, TRPA1(A)10a (Drosophila melanogaster, UniProt G8IQ59)", "T4 construct": "full-length splice isoform, TrpA1 cRNA injected in Xenopus laevis oocytes", "T4 sequence (G8IQ59 1-1232)": "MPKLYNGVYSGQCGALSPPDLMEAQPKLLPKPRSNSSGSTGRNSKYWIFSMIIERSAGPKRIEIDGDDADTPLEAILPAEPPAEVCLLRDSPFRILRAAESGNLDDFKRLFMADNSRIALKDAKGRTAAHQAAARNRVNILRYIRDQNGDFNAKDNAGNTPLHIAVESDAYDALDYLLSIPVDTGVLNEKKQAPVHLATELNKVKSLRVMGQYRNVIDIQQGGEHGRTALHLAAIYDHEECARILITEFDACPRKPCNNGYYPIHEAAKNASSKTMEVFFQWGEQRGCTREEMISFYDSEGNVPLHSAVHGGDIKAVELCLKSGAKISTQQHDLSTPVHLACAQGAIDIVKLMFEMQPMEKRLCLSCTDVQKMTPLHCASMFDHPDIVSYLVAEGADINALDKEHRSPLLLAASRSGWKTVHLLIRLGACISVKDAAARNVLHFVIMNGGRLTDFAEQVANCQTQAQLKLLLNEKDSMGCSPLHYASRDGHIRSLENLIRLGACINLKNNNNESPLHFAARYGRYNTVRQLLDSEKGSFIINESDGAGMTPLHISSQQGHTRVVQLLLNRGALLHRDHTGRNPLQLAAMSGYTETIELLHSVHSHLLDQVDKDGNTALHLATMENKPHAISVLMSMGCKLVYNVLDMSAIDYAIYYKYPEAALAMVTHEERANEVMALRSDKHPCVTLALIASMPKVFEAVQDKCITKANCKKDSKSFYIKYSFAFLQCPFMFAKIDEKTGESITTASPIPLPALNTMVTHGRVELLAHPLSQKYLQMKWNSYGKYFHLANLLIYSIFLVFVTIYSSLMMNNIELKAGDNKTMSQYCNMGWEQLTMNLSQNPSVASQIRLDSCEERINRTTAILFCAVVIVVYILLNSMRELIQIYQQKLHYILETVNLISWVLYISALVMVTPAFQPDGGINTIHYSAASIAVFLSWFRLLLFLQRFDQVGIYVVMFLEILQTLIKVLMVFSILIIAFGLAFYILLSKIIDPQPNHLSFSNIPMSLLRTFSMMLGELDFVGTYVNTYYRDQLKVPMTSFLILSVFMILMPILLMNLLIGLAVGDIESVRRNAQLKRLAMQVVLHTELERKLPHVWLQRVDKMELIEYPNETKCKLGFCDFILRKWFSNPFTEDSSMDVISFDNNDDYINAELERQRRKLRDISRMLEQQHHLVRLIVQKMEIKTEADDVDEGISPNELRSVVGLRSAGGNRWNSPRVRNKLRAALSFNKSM"}}}
{"smiles": "OCl", "note": "[NaOCl]", "values": [{"measurement": "EC50", "setting": "[1]", "value": "1.7±0.7", "unit": "ppm"}, {"measurement": "EC50", "setting": "[2]", "value": "21.1±3.6", "unit": "ppm"}, {"measurement": "EC50", "setting": "[3]", "value": "13.2±1.0", "unit": "ppm"}, {"measurement": "EC50", "setting": "[4]", "value": "5.7±0.6", "unit": "ppm"}]}
